Patent US20180085416A1, “TRADITIONAL CHINESE MEDICINE COMPOSITION AND PREPARATION METHOD AND USE THEREOF” (INFINITUS (CHINA) COMPANY LTD., priority 2016, published 2018)

Assays:
[1] = system: mouse tampon granuloma; assay: Chronic inflammatory model: cotton pellet (tampon) induced granuloma; format: in vivo, Balb/c mice; settings: mice, 10 mg/kg
Procedure: 80 Balb/c male mice (about 8 weeks old) were randomized into 8 groups based on body weight (10 mice/group). The groups were respectively model group and positive control group—dexamethasone group, high, medium and low dose groups of the traditional Chinese medicine composition produced by Comparative Example 1 (0.35, 1.05, 2.10 ml/kg), high, medium and low dose groups of the medicament produced by Example 1 (0.35, 1.05, 2.10 ml/kg). Animals from Comparative Example group and Examples of the present application groups were intragastrically administrated 30 days before modeling, once a day. Model control group was administered equal volume of deionized water. The administration volume was always 2.10 ml/kg. Dexamethasone group was administered at 10 mg/kg, and was intragastrically administrated 10 days before modeling. After the last administration, the mice were anesthetized by intraperitoneal injection of 3% pentobarbital sodium at a dose of 60 mg/kg body weight. After anesthesia, the animals were fixed in supine position, and the bilateral inguinal clothing hairs of the rats were removed with a hair removal device. After iodophor disinfection, the rats were subjected to skin incision for about 2 cm at both sides of the groin, and a sterilized tampon was implanted at both sides of the groin of the rats. […]

[2] = system: carrageenan induced toe swelling of mice; assay: Acute inflammatory model: carrageenan-induced paw edema; format: in vivo, Balb/c mice; settings: 10 mg/kg, blank control = 100
Procedure: 90 Balb/c male mice (about 8 weeks old) were randomized into 9 groups based on body weight (10 mice/group). The groups were respectively blank control group, model group and positive control group—dexamethasone group, high, medium and low dose groups of the traditional Chinese medicine composition produced by Comparative Example 1 (0.35, 1.05, 2.10 ml/kg), high, medium and low dose groups of the medicament produced by Example 1 (0.35, 1.05, 2.10 ml/kg). Animals from Comparative Example group and Examples of the present application groups were intragastrically administrated 30 days before modeling, once a day. Blank control group and model control group were administered equal volume of distilled water. The administration volume was always 2.10 ml/kg. Dexamethasone group was administered at 10 mg/kg, and was intragastrically administrated 10 days before modeling. The model control group was intragastrically administrated equal volume of distilled water for consecutive 30 days, once a day. On day 30, 1 hour after the test samples were administered, a line was drawn using a marker pen along the external malleolus of right rear paw of rats as the marker. A toe volume measuring instrument was used to measure the volumes of right rear toes of each groups of rats (as the toe volume at 0 hour), and then the right rear toes of rats were subcutaneously injected 1% carrageenan (0.05 mL/rat). The thickness of rat paws at 1, 2, 4 hours were measured respectively. Each animal was measured for 3 times at the same site, and the results were averaged. The swelling value is defined as the difference between the toe volumes measured at different times and the toe volumes before the action of proinflammatory agent, which is used to calculate the toe volume swelling rates at each time period.
[Paw edema (mm)]=[footpad thickness of carrageenan (mm)−footpad thickness of PBS (mm)].

[3] = system: capsaicin induced rats' pharyngitis; assay: Effect on acute pharyngitis (capsaicin induced pharyngitis), EB dye exudation at pharyngeal mucosa; format: in vivo, SD rats; settings: 1 mg/kg intragastric, 10 days before modeling
Procedure: Experimental method: 90 male SD rats (˜8 weeks age) were randomized into 9 groups (10 rats/group). […] Animals from Comparative Example groups and Example of the present application groups were intragastrically administrated 30 days before modeling, once a day. Blank control group and model control group were administered equal volume of distilled water. […] The positive control group was administered at 1 mg/kg, and was intragastrically administrated 10 days before modeling. 24 hours after the last administration, the rats were anesthetized, injected with EB dye through the side tail vein. Ten minutes later, capsaicin was smeared to velopharyngeal tissue mucosa of rats, wherein each point was smeared for 3 times/5 seconds, with a total of 60 minutes. Blank control group was not subjected to stimulation.
After the end of the experiment, all rats were sacrificed by cervical dislocation, and were subjected to quantitative determination of EB dye exudation at pharyngeal mucosa respectively, in order to evaluate the improvement situation of pharyngeal mucosa inflammation of rats induced by capsaicin.

[4] = system: excreted amount of phenol red in trachea of mice; assay: Expectorant effect in mice (phenol red excretion in trachea); format: in vivo, Balb/c mice
Procedure: 80 Balb/c male mice (about 8 weeks old) were randomized into 8 groups based on body weight (10 mice/group). The groups were respectively blank control group and positive control group—ammonium chloride group (1 g/kg), high, medium and low dose groups of the traditional Chinese medicine composition produced by Comparative Example 1 (0.35, 1.05, 2.10 ml/kg), high, medium and low dose groups of the medicament produced by Example 1 (0.35, 1.05, 2.10 ml/kg). The blank control group was administered equal volume of deionized water. The administration volume was always 2.10 ml/kg. Gavage was performed for consecutive 30 days, once/day. 30 min before modeling, the positive control group was administered. […] A certain amount of phenol red was weighted with a balance, and 5% sodium bicarbonate solution was added to formulate 1 ml solution containing […] of phenol red, which was diluted sequentially to 1 mL solution containing 0.1, 0.3, 0.7, 1.0, 3.0, 5.0, 10.0 μg of phenol red was measured for absorbance. A standard curve was made by taking the dose of phenol red as abscissa, absorbance as ordinate. The amount of phenol red was calculated from the standard curve of phenol red according to the measured OD value. […]

SMILES | wet weight of granuloma [1] | Net weight of granuloma ([1]; dried weight minus original weight of tampon) | Swelling degrees of toes at different times after inflammation, 1 h ([2]; 1 h) | Swelling degrees of toes at different times after inflammation, 2 h ([2]; 2 h) | Swelling degrees of toes at different times after inflammation, 4 h ([2]; 4 h) | exudated amount of evans blue (EB) [3] | excreted amount of phenol red, result in words ([4]; compared with control group) | excreted amount of phenol red ([4]; mice, 1 g/kg, 30 min before modeling)
C[C@@H]1C[C@H]2[C@@H]3CCC4=CC(=O)C=C[C@]4(C)[C@@]3(F)[C@@H](O)C[C@]2(C)[C@@]1(O)C(=O)CO [dexamethasone, Dexamethasone] | 217.11 | 13.03 mg | 177.23 | 164.17 | 157.17 | 36.98 ± 2.74 µg/g |  | 
Cl.N [ammonium chloride] |  |  |  |  |  |  | significantly (P<0.05) increase the excreted amount of phenol red | 7.92 ± 0.88 µg/mL
